In ChEMBL document CHEMBL5344425, “Discovery of 5-(Pyrimidin-2-ylamino)-1H-indole-2-carboxamide Derivatives as Nur77 Modulators with Selective and Potent Activity Against Triple-Negative Breast Cancer” (J Med Chem, 2023):
The source made the active and inactive calls. The calls are words filed in the database; no cut-off is given here.

What was measured:
[1] = Selectivity index, ratio of IC50 for cytotoxicity against human MCF-10A cells to IC50 for antiproliferative activity against human T47D cells; assay type: toxicity, cell-based; settings: MCF-10A cells versus T47D cells, read-out: Ratio IC50
[2] = Selectivity index, ratio of IC50 for cytotoxicity against human MCF-10A cells to IC50 for antiproliferative activity against human MDA-MB-231 cells; assay type: toxicity, cell-based; settings: MCF-10A cells versus MDA-MB-231 cells, read-out: Ratio IC50
[3] = Toxicity in BALB/c mouse xenografted with human MDA-MB-231 cells assessed as abnormal behaviour at 10 mg/kg, ip qd for 16 days; assay type: organism-based; settings: in vivo, 384 h, time 16 day
[4] = Toxicity in Zebra fish AB embryo assessed as induction of morphological abnormalities at 1.25 uM measured after 24 to 72 hrs; parameters: species or system Danio rerio; settings: zebrafish, time 24-72 hrs
MDA-MB-231 [5] = experiment: Induction of apoptosis in human MDA-MB-231 cells assessed as proportion of late apoptotic cells at 2.5 uM measured after 5 hrs by AnnexinV-FITC/PI staining based flow cytometry (reference value: 2.55%); assay type: functional
BT-549 = experiment: Antiproliferative activity against human BT-549 cells assessed as inhibition of cell growth measured after 24 hrs by MTT assay; assay type: functional, cell-based; settings: BT-549, 24 h
[6] = Toxicity in BALB/c mouse xenografted with human MDA-MB-231 cells assessed as morphological changes in liver at 10 mg/kg, ip qd for 16 days by Hematoxylin-Eosin staining based analysis; assay type: organism-based; settings: in vivo, 384 h, time 16 day
Bel-7402 = experiment: Antiproliferative activity against human Bel-7402 cells assessed as inhibition of cell growth measured after 24 hrs by MTT assay; assay type: functional, cell-based; settings: Bel-7402, 24 h
[7] = Toxicity in BALB/c mouse xenografted with human MDA-MB-231 cells assessed as morphological changes in kidney at 10 mg/kg, ip qd for 16 days by Hematoxylin-Eosin staining based analysis; assay type: organism-based; settings: in vivo, 384 h, time 16 day
MDA-MB-231 [8] = experiment: Induction of apoptosis in human MDA-MB-231 cells transfected with Nur77 siRNA assessed as early apoptotic cells at 2 uM measured after 6 hrs by AnnexinV-FITC/PI staining based flow cytometry (reference value: 1.88%); assay type: functional
[9] = Toxicity in BALB/c mouse xenografted with human MDA-MB-231 cells assessed as morphological changes in heart at 10 mg/kg, ip qd for 16 days by Hematoxylin-Eosin staining based analysis; assay type: organism-based; settings: in vivo, 384 h, time 16 day
HCT-116 = experiment: Antiproliferative activity against human HCT-116 cells assessed as inhibition of cell growth measured after 24 hrs by MTT assay; assay type: functional, cell-based; settings: HCT-116, 24 h
MDA-MB-231 [10] = experiment: Induction of apoptosis in human MDA-MB-231 cells assessed as PARP cleavage at 2.5 uM pretreated with proteasome and calpain inhibitor, MG132 for 4 hrs followed by compound addition and measured after 6 hrs by western blot analysis; assay type: functional, cell-based
[11] = Toxicity in BALB/c mouse xenografted with human MDA-MB-231 cells assessed as body weight loss at 10 mg/kg, ip qd for 16 days; assay type: organism-based; settings: in vivo, 384 h, time 16 day
MDA-MB-231 [12] = experiment: Induction of apoptosis in human MDA-MB-231 cells transfected with Nur77 siRNA assessed as loss of mitochondrial membrane potential at 2 uM measured after 6 hrs by JC-1 staining based flow cytometry (reference value: 6.1%); assay type: functional
MDA-MB-231 [13] = experiment: Induction of apoptosis in human MDA-MB-231 cells assessed as PARP cleavage at 2.5 uM pretreated with caspase inhibitor, Z-VAD-FMK for 4 hrs followed by compound addition and measured after 6 hrs by western blot analysis; assay type: functional, cell-based
MDA-MB-231 [14] = experiment: Induction of apoptosis in human MDA-MB-231 cells transfected with Nur77 siRNA assessed as late apoptotic cells at 1 uM measured after 6 hrs by AnnexinV-FITC/PI staining based flow cytometry (reference value: 3.97%); assay type: functional
MDA-MB-231 [15] = experiment: Induction of apoptosis in human MDA-MB-231 cells transfected with ctr siRNA assessed as loss of mitochondrial membrane potential at 2 uM measured after 6 hrs by JC-1 staining based flow cytometry (reference value: 13.93%); assay type: functional
[16] = molecular target: T1, Nuclear receptor subfamily 4immunitygroup A member 1 (Homo sapiens, UniProt P22736); experiment: Binding affinity to His-tagged Nur77 ligand binding domain (unknown origin) by surface plasmon resonance assay
T1 sequence (P22736 whole entry, the tested form may be a part): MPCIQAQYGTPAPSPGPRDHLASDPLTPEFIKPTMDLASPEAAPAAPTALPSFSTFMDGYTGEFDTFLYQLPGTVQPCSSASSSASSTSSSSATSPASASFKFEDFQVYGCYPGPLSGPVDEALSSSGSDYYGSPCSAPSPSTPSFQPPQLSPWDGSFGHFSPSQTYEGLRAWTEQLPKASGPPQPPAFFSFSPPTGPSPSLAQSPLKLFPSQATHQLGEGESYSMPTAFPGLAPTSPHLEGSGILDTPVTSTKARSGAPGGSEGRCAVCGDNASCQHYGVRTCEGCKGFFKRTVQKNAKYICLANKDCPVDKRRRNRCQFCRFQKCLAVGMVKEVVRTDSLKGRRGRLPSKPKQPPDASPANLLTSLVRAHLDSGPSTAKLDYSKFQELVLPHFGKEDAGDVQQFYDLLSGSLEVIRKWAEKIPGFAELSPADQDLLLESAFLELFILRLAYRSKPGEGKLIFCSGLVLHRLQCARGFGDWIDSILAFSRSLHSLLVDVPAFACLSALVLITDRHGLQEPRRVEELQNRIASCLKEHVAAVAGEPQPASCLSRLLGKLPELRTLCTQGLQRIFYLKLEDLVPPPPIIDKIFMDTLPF

MDA-MB-231 [17] = experiment: Antitumor activity against human MDA-MB-231 cells xenografted in BALB/c mouse assessed as inhibition of tumor growth at 10 mg/kg, ip qd for 16 days; assay type: functional; settings: MDA-MB-231, 384 h, time 16 day, read-out: TGI
MDA-MB-231 [18] = experiment: Induction of apoptosis in human MDA-MB-231 cells transfected with Nur77 siRNA assessed as loss of mitochondrial membrane potential at 1 uM measured after 6 hrs by JC-1 staining based flow cytometry (reference value: 6.1%); assay type: functional
[19] = Toxicity in BALB/c mouse xenografted with human MDA-MB-231 cells assessed as morphological changes in lung at 10 mg/kg, ip qd for 16 days by Hematoxylin-Eosin staining based analysis; assay type: organism-based; settings: in vivo, 384 h, time 16 day
MDA-MB-231 [20] = experiment: Antitumor activity against human MDA-MB-231 cells xenografted in BALB/c mouse assessed as decrease in Ki67 expression in tumor at 10 mg/kg, ip qd for 16 days by immunohistochemical staining based analysis; assay type: functional, organism-based; settings: time 16.0 day
[21] = molecular target: T1, Nuclear receptor subfamily 4immunitygroup A member 1; experiment: Modulation of Nur77 in human MDA-MB-231 cells assessed as increase in TP53 phosphorylation at Ser37 residue at 0.31 to 5 uM measured after 6 hrs by western blot analysis; assay type: cell-based; settings: filed as modulator, dose 0.31-5 µM
MDA-MB-231 [22] = experiment: Induction of apoptosis in human MDA-MB-231 cells transfected with Nur77 siRNA assessed as late apoptotic cells at 2 uM measured after 6 hrs by AnnexinV-FITC/PI staining based flow cytometry (reference value: 3.97%); assay type: functional
MDA-MB-231 [23] = experiment: Induction of apoptosis in human MDA-MB-231 cells transfected with ctr siRNA assessed as early apoptotic cells at 1 uM measured after 6 hrs by AnnexinV-FITC/PI staining based flow cytometry (reference value: 1.88%); assay type: functional
[24] = molecular target: T1, Nuclear receptor subfamily 4immunitygroup A member 1; experiment: Antagonist activity at Nur77 ligand binding domain (unknown origin) transfected in HEK293T cells cotransfected with pG5-Luc assessed as inhibition of receptor transcriptional activity measured after 12 hrs by luciferase reporter gene assay; assay type: cell-based; settings: filed as antagonist, dose 0.5-2 µM
MDA-MB-231 [25] = experiment: Induction of apoptosis in human MDA-MB-231 cells assessed as proportion of early apoptotic cells at 5 uM measured after 5 hrs by AnnexinV-FITC/PI staining based flow cytometry (reference value: 3.35%); assay type: functional
[26] = Toxicity in Zebra fish AB embryo assessed as mortality rate at 1.25 to 5 uM measured after 24 to 72 hrs; parameters: species or system Danio rerio; settings: zebrafish, dose lower 1.25 µM, time lower 24 hrs, dose upper 5 µM, time upper 72 hrs
MDA-MB-231 [27] = experiment: Induction of apoptosis in human MDA-MB-231 cells transfected with ctr siRNA assessed as late apoptotic cells at 2 uM measured after 6 hrs by AnnexinV-FITC/PI staining based flow cytometry (reference value: 3.97%); assay type: functional
MCF7 = experiment: Antiproliferative activity against human MCF7 cells assessed as inhibition of cell growth measured after 24 hrs by MTT assay; assay type: functional, cell-based; settings: MCF7, 24 h

CCN(CC)CCCNC(=O)c1cc2cc(Nc3nccc(-c4sc(NC)nc4C)n3)ccc2[nH]1
selectivity ratio [1]: 45.7 | selectivity ratio [2]: 120 | Activity [3]: Non-Toxic | Activity [4]: Toxic | Activity (MDA-MB-231 [5]): 16.69% | IC50 (BT-549): 2.12 µM | Activity [6]: Non-Toxic | IC50 (Bel-7402): 38.3 µM | Activity [7]: Non-Toxic | Activity (MDA-MB-231 [8]): 2.5% | Activity [9]: Non-Toxic | IC50 (HCT-116): 9.84 µM | Activity (MDA-MB-231 [10]): inactive | Activity [11]: Non-Toxic | Activity (MDA-MB-231 [12]): 15.41% | Activity (MDA-MB-231 [13]): inactive | Activity (MDA-MB-231 [14]): 2.24% | Activity (MDA-MB-231 [15]): 68.69% | Kd [16]: 0.091 µM | inhibition in vivo at 10 mg/kg (MDA-MB-231 [17]): 100% | Activity (MDA-MB-231 [18]): 8.57% | Activity [19]: Non-Toxic | Activity (MDA-MB-231 [20]): Active | Activity [21]: Active | Activity (MDA-MB-231 [22]): 2.36% | Activity (MDA-MB-231 [23]): 11.24% | inhibition [24]: Dose-Dependent Effect | Activity (MDA-MB-231 [25]): 52.78% | Activity [26]: Non-Toxic | Activity (MDA-MB-231 [27]): 13.04% | IC50 (MCF7): 0.72 µM
